According to patent publication US8263139B2 (Metaproteonics, LLC, priority 2005, dated 2012):
Marks after values point to notes of the source that are not given here.

Tests used:
3T3-L1 adipocytes [1] = experiment: Lipogenesis in 3T3-L1 adipocytes (Oil Red O / BODIPY); format: cell-based, murine
Procedure: Prior to experiments, cells were cultured in DMEM containing 10% FBS-HI added 50 units penicillin/ml and 50 μg streptomycin/ml, and maintained in log phase prior to experimental setup. Cells were grown in a 5% CO2 humidified incubator at 37° C. Components of the pre-confluent medium included (1) 10% FBS/DMEM containing 4.5 g glucose/L; (2) 50 U/ml penicillin; and (3) 50 μg/ml streptomycin. Growth medium was made by adding 50 ml of heat inactivated FBS and 5 ml of penicillin/streptomycin to 500 ml DMEM. This medium was stored at 4° C. Before use, the medium was warmed to 37° C. in a water bath.
3T3-T1 cells were seeded at an initial density of 6×10^4 cells/cm^2 in 24-well plates. For two days, the cells were allowed grow to reach confluence. Following confluence, the cells were forced to differentiate into adipocytes by the addition of differentiation medium; this medium consisted of (1) 10% FBS/DMEM (high glucose); (2) 0.5 mM methylisobutylxanthine; (3) 0.5 μM dexamethasone and (4) 10 μg/ml insulin (MDI medium). After three days, the medium was changed to post-differentiation medium consisting of 10 μg/ml insulin in 10% FBS/DMEM.
Whenever fresh media were added, fresh test material was also added.
Monolayer cells were washed with PBS (phosphate buffered saline, Mediatech) and fixed with 10% formaldehyde for ten minutes. Fixed cells were stained with an Oil Red O working solution of three parts 0.6% Oil Red O/isopropanol stock solution and two parts water for one hour and the excess stain was washed once with water. The resulting stained oil droplets were extracted from the cells with isopropanol and quantified by spectrophotometric analysis at 540 nm (MEL312e BIO-KINETICS READER, Bio-Tek Instruments, Winooski, Vt.).
Briefly, media were removed and cells were washed once with non-sterile PBS. […] After 15 min on an orbital shaker (DS-500, VWR Scientific Products, South Plainfield, N.J.) at ambient temperature, the cells were washed with 100 μl PBS followed by the addition of 100 μl PBS for reading for spectrofluorometric determination of BODIPY incorporation into the cells. […]

3T3-L1 adipocytes [2] = experiment: Adiponectin secretion from TNFα-treated 3T3-L1 adipocytes; format: cell-based, murine; conditions: for Concentration eliciting maximum adiponectin secretion: of the doses tested
Procedure: 3T3-L1 cells were seeded at an initial density of 1×10^4 cells/cm^2 in 96-well plates. For two days, the cells were allowed grow to reach confluence. Following confluence, the cells were forced to differentiate into adipocytes by the addition of differentiation medium; this medium consisted of (1) 10% FBS/DMEM (high glucose); (2) 0.5 mM methylisobutylxanthine; (3) 0.5 μM dexamethasone and (4) 10 μg/ml insulin (MDI medium). From Day 3 through Day 5, the medium was changed to post-differentiation medium consisting of 10% FBS in DMEM. […] On Day 6, the supernatant medium was sampled for adiponectin determination.
Statistical Calculations and Interpretation—All assays were preformed in duplicate. […] Differences among the doses and test agents were determined using the Student's t-test without correction for multiple comparisons; the nominal five percent probability of a type I error was selected.

3T3-L1 adipocytes [3] = experiment: IL-6 secretion in LPS/3T3-L1 adipocytes; format: cell-based, murine; conditions: at the concentration of maximum inhibition, with 100 ng LPS/ml
3T3-L1 adipocytes [4] = experiment: Adiponectin secretion in LPS/3T3-L1 adipocytes; format: cell-based, murine; conditions: at the concentration of maximum stimulation; NS = not significantly different from the LPS control
[5] = Collagen induced rheumatoid arthritis murine model, arthritic index; format: in vivo, mouse; conditions: 10 mg/kg
Procedure: The mice were injected intradermally on day 0 with a mixture containing 100 μg of type II collagen and 100 μg of Mycobacterium tuberculosis in squalene. A booster injection was repeated on day 21. Mice were examined on days 22-27 for arthritic signs with nonresponding mice removed from the study.
Arthritic symptomology was assessed (scored 0-4) for each paw using a arthritic index as described below. Under this arthritic index 0=no visible signs; 1=edema and/or erythema: single digit; 2=edema and or erythema: two joints; 3=edema and or erythema: more than two joints; and 4=severe arthritis of the entire paw and digits associated with ankylosis and deformity.

Compound: CC(C)CCC1=C(O)C(C(=O)C(C)C)=C(O)C(CCC(C)C)(CCC(C)C)C1=O [hexahydrocolupulone]
- adipogenic / lipogenic response compared with controls (3T3-L1 adipocytes [1]): failed to elicit a lipogenic response

Compound: COc1ccc2c(c1)c(CC(=O)O)c(C)n2C(=O)c1ccc(Cl)cc1 [indomethacin]
- Concentration eliciting maximum adiponectin secretion (3T3-L1 adipocytes [2]; 2 ng TNFα/ml): 1.25 µg/mL
- Concentration eliciting maximum adiponectin secretion (3T3-L1 adipocytes [2]; 10 ng TNFα/ml): 5.0 µg/mL
- % Inhibition (maximum inhibition of IL-6 secretion) (3T3-L1 adipocytes [3]): 53* %
- % Stimulation (maximum stimulation of adiponectin secretion) (3T3-L1 adipocytes [4]): 9%

Compound: CCc1ccc(CCOc2ccc(CC3SC(=O)NC3=O)cc2)nc1 (centres unmarked) [pioglitazone]
- maximal adiponectin secretion, times the TNFα treatment (3T3-L1 adipocytes [2]; 10 ng TNFα/ml): 1.47
- Concentration eliciting maximum adiponectin secretion over four doses (3T3-L1 adipocytes [2]; 10 ng TNFα/ml, Acacia catechu #5669 fractions): 1.25 µg/mL

Compound: C[C@]12C=CC(=O)C=C1CC[C@@H]1[C@@H]2[C@@H](O)C[C@@]2(C)[C@H]1CC[C@]2(O)C(=O)CO [prednisolone]
- arthritic index [5]: Significant reductions

Compound: Cc1c(C)c2c(c(C)c1O)CCC(C)(COc1ccc(CC3SC(=O)NC3=O)cc1)O2 (centres unmarked) [troglitazone]
- Concentration eliciting maximum adiponectin secretion (3T3-L1 adipocytes [2]; 10 ng TNFα/ml): 0.625 µg/mL

Compound: COc1cc(O)c(CC=C(C)C)c(O)c1C(=O)/C=C/c1ccc(O)cc1 [xanthohumol]
- adipogenic / lipogenic response compared with controls (3T3-L1 adipocytes [1]): comparable to indomethacin and troglitazone

Compound: Beta acids
- adipogenic / lipogenic response compared with controls (3T3-L1 adipocytes [1]): comparable to indomethacin and troglitazone
